Each structure is given as a SMILES string. Like-named read-outs stand apart in the source and are kept apart here.

The target of one experiment is T1, RET-CCDC6 (PTC1) (Homo sapiens, UniProt P07949).
T1 construct: purchased Reaction Biology Corp
Put plainly: Kinase panel inhibition, radiolabeled [γ-33P] ATP (Reaction Biology Corp). The format is biochemical. The settings on record: for remaining activity at 1 µM: compound at 1 uM, ATP 10 µM, read-out: % Enzyme Activity (relative to DMSO controls) RET-CCDC6 (PTC1); for remaining activity at 10 µM: compound at 10 uM, ATP 1 µM.

In a further experiment the target is T2, RET-NCOA4 (PTC3) (Homo sapiens, UniProt P07949).
T2 construct: purchased Reaction Biology Corp
T2 sequence (P07949 whole entry, looked up): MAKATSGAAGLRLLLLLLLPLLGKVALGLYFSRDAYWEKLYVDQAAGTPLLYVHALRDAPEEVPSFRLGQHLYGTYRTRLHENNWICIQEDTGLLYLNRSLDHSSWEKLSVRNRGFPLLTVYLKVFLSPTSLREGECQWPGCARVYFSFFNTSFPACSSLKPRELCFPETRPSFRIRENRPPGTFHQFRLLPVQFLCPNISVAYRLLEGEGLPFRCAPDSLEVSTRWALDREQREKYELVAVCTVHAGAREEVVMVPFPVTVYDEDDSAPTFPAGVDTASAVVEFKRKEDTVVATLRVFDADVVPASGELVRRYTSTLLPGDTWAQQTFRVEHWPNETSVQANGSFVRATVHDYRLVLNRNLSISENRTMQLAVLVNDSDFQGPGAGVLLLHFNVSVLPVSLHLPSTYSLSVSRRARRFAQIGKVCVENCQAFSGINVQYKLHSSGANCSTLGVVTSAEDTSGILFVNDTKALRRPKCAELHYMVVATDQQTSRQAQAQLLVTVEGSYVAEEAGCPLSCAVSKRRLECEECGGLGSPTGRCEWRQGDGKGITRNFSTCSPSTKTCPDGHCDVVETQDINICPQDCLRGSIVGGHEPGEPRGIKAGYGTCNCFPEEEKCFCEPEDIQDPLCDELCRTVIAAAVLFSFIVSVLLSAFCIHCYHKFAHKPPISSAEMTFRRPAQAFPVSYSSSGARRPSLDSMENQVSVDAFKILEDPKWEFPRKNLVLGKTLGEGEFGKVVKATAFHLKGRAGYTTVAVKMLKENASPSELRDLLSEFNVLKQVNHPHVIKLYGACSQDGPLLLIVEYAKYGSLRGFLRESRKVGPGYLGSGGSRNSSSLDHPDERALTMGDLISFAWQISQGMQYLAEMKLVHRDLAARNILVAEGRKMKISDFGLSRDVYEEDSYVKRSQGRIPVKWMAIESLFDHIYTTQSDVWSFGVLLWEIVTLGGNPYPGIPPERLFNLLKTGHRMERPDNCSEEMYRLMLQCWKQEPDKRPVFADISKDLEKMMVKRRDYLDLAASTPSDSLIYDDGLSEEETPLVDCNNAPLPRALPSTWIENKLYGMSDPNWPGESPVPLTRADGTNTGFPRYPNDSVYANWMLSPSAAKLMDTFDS
Described as above. As to conditions: compound at 1 uM; ATP 10 µM; read-out: % Enzyme Activity (relative to DMSO controls) RET-NCOA4 (PTC3). The format is biochemical.

For another experiment, the system named is BaF3-RET(V804M). Put plainly: Cell proliferation inhibition (GI50), Cell Counting Kit-8, Ba/F3 cell line. The format is cell-based, rodent. As to conditions: Mus musculus, BaF3; 72 hours incubation; Cell Counting Kit-8; read-out: GI50 of BaF3-RET(V804M). On the procedure:
(§1) To evaluate the inhibitory activity of the compounds represented by Formula I or Formula IV according to the present invention against RET mutation-driven cell growth in the Ba/F3 cell line and against cell growth in the non-small cell lung cancer cell line A-549, the following experiment was performed.
(§2) Each cell line was seeded in a 96-well plate at 1×10^4 cells/90 µL/well, and 10 µL/well of culture medium containing each example and intermediate compound or DMSO control at 9 concentrations (1 nM to 100 µM) prepared by 3-fold serial dilutions was added to achieve a final concentration of 0 to 100 µM, followed by incubation for 72 hours in a 37°C, 5% CO2 incubator. After 72 hours of incubation, the compound-treated plates were removed, and Cell Counting Kit-8 solution was added at 10 µL/well and mixed well. The plates were then incubated for 2 hours in a CO2 incubator at 37°C, and the absorbance was measured at 450 nm using a microplate reader.
In addition, the data were expressed as a percentage relative to vehicle-treated cells, and GI50 values were calculated using GraphPad Prism 8.0 (GraphPad Software Inc., San Diego), and the results are shown in Table 8 below. As a control compound, ponatinib, a known RET inhibitor, was treated to calculate the GI50 values.

The test system of the next experiment is BaF3 KIF5B-RET (V804M). Put plainly: Cell proliferation inhibition, Cell Counting Kit-8, Ba/F3 cell line. The settings on record: Mus musculus, 72 hours incubation, read-out: Cell Viability of BaF3 Cell lines (IC50 in uM) KIF5B-RET (V804M). The format is cell-based, rodent. How it is done:
as §1, §2
The absorbance of the experimental group relative to that of the DMSO control group was converted to % survival, and the IC50 values representing the concentration required to inhibit cell growth by 50% were calculated. As a control compound, selpercatinib, a known RET inhibitor, was treated to calculate the IC50 values.

Where [1] appears, read: Data 1, read-out: % Enzyme Activity (relative to DMSO controls) RET-CCDC6 (PTC1) Data 1.
The mark [2] stands for this setting: Data 2, read-out: % Enzyme Activity (relative to DMSO controls) RET-CCDC6 (PTC1) Data 2.

T1 sequence (P07949 whole entry, looked up): as above
Procedure for RET-CCDC6 (PTC1): (§3) Using radiolabeled ATP ([γ-33P] ATP), the degree to which the substrate was replaced by a 33P-phosphorylated substrate was measured, and changes in kinase activity were determined from the measurement of the radiolabeled phosphorylated substrate.
Procedure for RET-NCOA4 (PTC3): as §3

Consider `Nc1cc(-c2ccc(N3CC(Oc4cccc(F)c4)C3)nc2)c2nccnc2c1` [Example 1, 8-(6-(3-(3-fluorophenoxy)azetidin-1-yl)pyridin-3-yl)quinoxalin-6-amine], for which the values for the remaining activity at 1 µM on RET-CCDC6 (PTC1) and at RET-NCOA4 (PTC3) were 0.01% and 1.11%, respectively. Moreover, the remaining activity at 10 µM on RET-CCDC6 (PTC1) (setting [1]) was 0.75%; on RET-CCDC6 (PTC1) (setting [2]), 0.52%. Also, the GI50 with BaF3-RET(V804M) turned out to be 1460 nM. Besides, the concentration for half-maximal inhibition (IC50) in the experiment on BaF3 KIF5B-RET (V804M) was found to be 1.02 µM.

Consider `CCNc1cc(-c2ccc(N3CC(Oc4cccc(F)c4)C3)nc2)c2nccnc2c1` [Example 3, N-ethyl-8-(6-(3-(3-fluorophenoxy)azetidin-1-yl)pyridin-3-yl)quinoxalin-6-amine], for which the results for the remaining activity at 1 µM on RET-CCDC6 (PTC1) and on RET-NCOA4 (PTC3) were 18.6% and 16.8%, respectively. In addition, the remaining activity at 10 µM at RET-CCDC6 (PTC1) (setting [1]) turned out to be 0.73%; on RET-CCDC6 (PTC1) (setting [2]) it was 0.91%. In addition, the concentration for 50% growth inhibition (GI50) in the experiment with BaF3-RET(V804M) was 661 nM. Besides, the IC50 in the experiment on BaF3 KIF5B-RET (V804M) was determined as 0.12 µM.
